Measurements from patent US8513232B2, “Substituted spirocyclic piperidine derivatives as histamine-3 (H3) receptor ligands” (Cephalon, Inc., priority 2008, dated 2013).
Like-named read-outs stand apart in the source and are kept apart here.

Experiments:
[1] = target: T1, rat histamine H3 receptor (Rattus norvegicus, UniProt Q9QYN8); assay: Rat H3 radioligand binding ([3H]-N-alpha-methylhistamine, SPA)
T1 construct: encoding the entire 445-amino-acid rat histamine H3 receptor; expressed in transfected cells; membrane preparation
T1 sequence (Q9QYN8 whole entry): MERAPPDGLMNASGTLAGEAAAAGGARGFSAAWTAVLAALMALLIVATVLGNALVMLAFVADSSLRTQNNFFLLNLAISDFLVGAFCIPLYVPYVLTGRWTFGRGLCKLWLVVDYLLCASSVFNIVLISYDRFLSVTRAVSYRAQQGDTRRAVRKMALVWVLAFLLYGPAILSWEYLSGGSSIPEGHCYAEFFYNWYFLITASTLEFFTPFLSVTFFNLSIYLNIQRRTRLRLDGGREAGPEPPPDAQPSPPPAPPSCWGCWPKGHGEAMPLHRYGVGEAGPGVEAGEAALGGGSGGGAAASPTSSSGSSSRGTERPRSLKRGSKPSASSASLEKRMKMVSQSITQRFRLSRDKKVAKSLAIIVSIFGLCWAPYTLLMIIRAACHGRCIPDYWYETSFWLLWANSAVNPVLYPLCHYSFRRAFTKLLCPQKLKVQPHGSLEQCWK
Outline: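 SPA-bead binding assay using [3H]-N-alpha-methylhistamine (approximately 1 nM final) with test compounds from 0.01 nM to 30 μM. Rat H3 receptor membranes came from stably transfected CHO-A3 cells; incubation ran 4 h at room temperature, in the dark, in Tris pH 7.4 buffer with MgCl2 and BSA. Clobenpropit (10 μM) gave non-specific binding.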

human H3 receptor = target: T2, human H3 receptor (Homo sapiens, UniProt Q9Y5N1); assay: Human H3 radioligand binding ([3H]-N-alpha-methylhistamine, SPA)
T2 construct: expressed in transfected cells
T2 sequence (Q9Y5N1 whole entry): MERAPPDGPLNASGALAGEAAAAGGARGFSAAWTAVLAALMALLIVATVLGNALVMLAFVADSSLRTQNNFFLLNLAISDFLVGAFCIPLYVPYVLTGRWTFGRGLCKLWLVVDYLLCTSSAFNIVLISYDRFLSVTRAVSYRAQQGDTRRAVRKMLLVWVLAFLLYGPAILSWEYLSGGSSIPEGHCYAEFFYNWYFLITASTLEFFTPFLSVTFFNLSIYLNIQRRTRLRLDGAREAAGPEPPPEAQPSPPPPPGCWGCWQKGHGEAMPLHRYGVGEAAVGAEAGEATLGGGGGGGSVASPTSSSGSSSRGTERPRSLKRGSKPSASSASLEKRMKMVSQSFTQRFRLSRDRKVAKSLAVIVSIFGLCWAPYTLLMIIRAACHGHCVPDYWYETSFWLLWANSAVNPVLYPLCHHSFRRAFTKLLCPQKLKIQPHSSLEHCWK
Outline: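 Compounds (0.01 nM-30 μM) competed with approximately 1 nM [3H]-N-alpha-methylhistamine for human H3 receptor in membranes of stably transfected CHO cells, 10 μg protein per well, in Tris-HCl pH 7.4/MgCl2/BSA buffer for 4 h at room temperature. Bound radioligand measured by scintillation proximity; 10 μM clobenpropit gave non-specific binding.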

[2] = Rat H3 binding, Table B, Examples 136-362, read-out: rat H3 binding Ki
[3] = Human H3 binding, Table B, Examples 136-362, read-out: hum H3 binding Ki

SMILES | melting point | Ki [1, 2] | Ki (human H3 receptor; [3]) | Ki [1] | Ki (human H3 receptor)
O=C1N(c2ccc(C(F)(F)F)nc2)CCN1c1ccc2c(c1)COC1(CCN(C3CCC3)CC1)O2 [Example 242] | 222 to 224 °C | < 200 nM | < 200 nM | – | –
Cc1ncoc1C(=O)Nc1ccc2c(c1)CCC1(CCN(C3CCC3)CC1)O2 [Example 243] | 169 to 171 °C | < 200 nM | < 200 nM | – | –
CN(C)C(=O)c1ccc(N2CCN(c3ccc4c(c3)COC3(CCN(C5CCC5)CC3)O4)C2=O)cc1 [Example 244] | 243 to 245 °C | < 200 nM | < 200 nM | – | –
O=C(Nc1cccc(F)c1)Nc1ccc2c(c1)COC1(CCN(C3CCC3)CC1)O2 [Example 245] | 227 to 228 °C | < 200 nM | < 200 nM | – | –
CNC(=O)c1ccc(-c2ccc3c(c2)CCC2(CCN(C4CCC4)CC2)O3)cc1C#N [Example 246] | 80 to 82 °C | < 200 nM | < 200 nM | – | –
c1cc(CNc2ccc3c(c2)COC2(CCN(C4CCC4)CC2)O3)ccn1 [Example 247] | 45 to 48 °C | < 200 nM | < 200 nM | – | –
O=C(Nc1ccc(F)cc1)Nc1ccc2c(c1)COC1(CCN(C3CCC3)CC1)O2 [Example 248] | 237 to 238 °C | < 200 nM | < 200 nM | – | –
O=C(Nc1ccc2c(c1)CCC1(CCN(C3CCC3)CC1)O2)c1cc(-c2ccccc2)ncn1 [Example 249] | 153 to 155 °C | < 200 nM | < 200 nM | – | –
CC(=O)N(Cc1ccncc1)c1ccc2c(c1)COC1(CCN(C3CCC3)CC1)O2 [Example 250] | 63 to 65 °C | < 200 nM | < 200 nM | – | –
COC1CCN(C(=O)c2ccc(-c3ccc4c(c3)CCC3(CCN(C5CCC5)CC3)O4)cn2)CC1 [Example 251] | 150 to 152 °C | < 200 nM | < 200 nM | – | –
CO[C@H]1CCN(C(=O)c2ccc(-c3ccc4c(c3)CCC3(CCN(C5CCC5)CC3)O4)cn2)C1 [Example 252] | 249 to 251 °C | < 200 nM | < 200 nM | – | –
CC(=O)N(c1ccc2c(c1)COC1(CCN(C3CCC3)CC1)O2)c1ccccn1 [Example 253] | 53 to 55 °C | < 200 nM | < 200 nM | – | –
CCNC(=O)N1CCN(c2ccc3c(n2)COC2(CCN(C4CCC4)CC2)O3)CC1 [Example 254] | 122 to 124 °C | < 200 nM | < 200 nM | – | –
COCCNC(=O)c1ccc(-c2ccc3c(c2)COC2(CCN(C4CCC4)CC2)O3)cc1C [Example 255] | 124.6 to 126.4 °C | < 200 nM | < 200 nM | – | –
COCCNC(=O)c1c(F)cc(-c2ccc3c(c2)CCC2(CCN(C4CCC4)CC2)O3)cc1F [Example 256] | 64.9 to 65.4 °C | < 200 nM | < 200 nM | – | –
c1cncc(Oc2ccc3c(c2)CCC2(CCN(C4CCC4)CC2)O3)c1 [Example 257] | 255 to 257 °C | < 200 nM | < 200 nM | – | –
O=C(c1ccc(-c2ccc3c(c2)COC2(CCN(C4CCC4)CC2)O3)cc1)N1CCC(O)CC1 [Example 258] | 100.4 to 102.2 °C | < 200 nM | < 200 nM | – | –
Clc1ccc(Nc2ccc3c(c2)COC2(CCN(C4CCC4)CC2)O3)cc1 [Example 259] | 234 to 235 °C | < 200 nM | < 200 nM | – | –
O=C(NCCO)c1c(F)cc(-c2ccc3c(c2)CCC2(CCN(C4CCC4)CC2)O3)cc1F [Example 260] | 76.3 to 78.2 °C | < 200 nM | < 200 nM | – | –
O=C(NCCO)c1c(F)cc(-c2ccc3c(c2)COC2(CCN(C4CCC4)CC2)O3)cc1F [Example 261] | 78.6 to 80.4 °C | < 200 nM | < 200 nM | – | –
COCCNC(=O)c1c(F)cc(-c2ccc3c(c2)COC2(CCN(C4CCC4)CC2)O3)cc1F [Example 262] | 125 to 126.3 °C | < 200 nM | < 200 nM | – | –

SMILES | melting point | Ki [1, 2] | Ki (human H3 receptor; [3]) | Ki [1] | Ki (human H3 receptor)
COC1CCN(C(=O)c2ccc(-c3ccc4c(c3)COC3(CCN(C5CCC5)CC3)O4)cc2)CC1 [Example 263] | 94 to 96 °C | < 200 nM | < 200 nM | – | –
COCCNC(=O)c1ccc(-c2cc3c(cc2Cl)OC2(CCN(C4CCC4)CC2)OC3)cc1 [Example 264] | 49 to 51 °C | 200 to 1000 nM | < 200 nM | – | –
O=C(Nc1ccc2c(c1)CCC1(CCN(C3CCC3)CC1)O2)c1cnnc2ccccc12 [Example 265] | 233 to 235 °C | – | – | < 200 nM | < 200 nM
CNC(=O)c1ccc(-c2cc3c(cc2Cl)OC2(CCN(C4CCC4)CC2)OC3)cc1 [Example 266] | 95 to 97 °C | < 200 nM | < 200 nM | – | –
COc1cc(C(=O)Nc2ccc3c(c2)COC2(CCN(C4CCC4)CC2)O3)ccn1 [Example 267] | 175 to 176 °C | < 200 nM | < 200 nM | – | –
Cc1cccc(Oc2ccc3c(c2)CCC2(CCN(C4CCC4)CC2)O3)n1 [Example 268] | 213 to 215 °C | < 200 nM | < 200 nM | – | –
c1cc(COc2ccc3c(c2)CCC2(CCN(C4CCC4)CC2)O3)ccn1 [Example 269] | 233 to 235 °C | < 200 nM | < 200 nM | – | –
O=C(Nc1ccc2c(c1)CCC1(CCN(C3CCC3)CC1)O2)c1ccns1 [Example 270] | 109 to 111 °C | < 200 nM | < 200 nM | – | –
O=C(Nc1ccc2c(c1)COC1(CCN(C3CCC3)CC1)O2)c1cncs1 [Example 271] | 222 to 224 °C | < 200 nM | < 200 nM | – | –
CNC(=O)c1ccc(-c2cc3c(cc2Cl)OC2(CCN(C4CCC4)CC2)OC3)cc1F [Example 272] | 70 to 72 °C | < 200 nM | < 200 nM | – | –
c1cc(Oc2ccc3c(c2)CCC2(CCN(C4CCC4)CC2)O3)ccn1 [Example 273] | 266 to 268 °C | < 200 nM | < 200 nM | – | –
COCC(C)(C)NC(=O)c1ccc(-c2ccc3c(c2)CCC2(CCN(C4CCC4)CC2)O3)cc1 [Example 274] | 264 to 266 °C | < 200 nM | < 200 nM | – | –
COCCNC(=O)N1CCN(c2ccc3c(c2)COC2(CCN(C4CCC4)CC2)O3)CC1 [Example 275] | 66.8 to 68.4 °C | < 200 nM | < 200 nM | – | –
O=C(Nc1ccccc1)N1CCN(c2ccc3c(c2)COC2(CCN(C4CCC4)CC2)O3)CC1 [Example 276] | 194.6 to 195.8 °C | < 200 nM | < 200 nM | – | –
O=C(Nc1ccc2c(c1)COC1(CCN(C3CCC3)CC1)O2)c1ccncc1F [Example 277] | 168 to 169 °C | < 200 nM | < 200 nM | – | –
O=C(Nc1ccc2c(c1)COC1(CCN(C3CCC3)CC1)O2)c1cc[nH]c(=O)c1 [Example 278] | 260 to 262 °C | < 200 nM | < 200 nM | – | –
CC(C)NC(=O)N1CCN(c2ccc3c(c2)COC2(CCN(C4CCC4)CC2)O3)CC1 [Example 279] | 206.5 to 207.5 °C | < 200 nM | < 200 nM | – | –
CNC(=O)c1cc(Oc2ccc3c(c2)CCC2(CCN(C4CCC4)CC2)O3)ccn1 [Example 281] | 255 to 257 °C | < 200 nM | < 200 nM | – | –
CNC(=O)c1ccc(Oc2ccc3c(c2)CCC2(CCN(C4CCC4)CC2)O3)cc1 [Example 282] | 179 to 181 °C | < 200 nM | < 200 nM | – | –
CC(=O)N1CCN(c2ccc3c(c2)COC2(CCN(C4CCC4)CC2)O3)CC1 [Example 283] | 60.8 to 62.3 °C | < 200 nM | < 200 nM | – | –
